Data on one molecule can be found in PMC11435220, “Anticancer Activity of Imidazolyl Gold(I/III) Compounds in Non-Small Cell Lung Cancer Cell Lines” (Pharmaceuticals, 2024).

The structures appear in SMILES notation.

One series concerns H522. Put plainly: MTT viability assay, H522. Format: cell-based, human. The settings on record: mean ± span, 48 h treatment, cell line without KRAS mutation. The protocol: (§1) NSCLC cell lines were obtained from the Hamon Center for Therapeutic Oncology Research (UT Southwestern Medical Center). IMR-90 human lung fibroblasts were from ATCC (CC-186). All cell lines were maintained and treated in RPMI medium (Cytiva (Shanghai, China), #SH30027), supplemented with 10% heat-inactivated FBS (Millipore Sigma (Darmstadt, Germany), F0394).
(§2) 5000–10,000 cells/0.1 mL/well were seeded in 96-well plates to achieve 70% confluence after 24 h. All drug stock solutions were prepared fresh in DMSO at a concentration of 10 mM. The day after cell plating, we added 0.1 mL of medium containing the appropriate drug dilutions. After 48 h of treatment, 10 μL of MTT solution (5 mg/mL) was added to each well. After 4 h incubation, the medium was aspirated, and the formazan salts dissolved in 200 μL DMSO/well for 10 min at 37 °C. The absorbance was read at 570 nm (OD 570 nm). Data are represented as mean ± SD of two independent experiments.
(§3) Statistical and data analysis was performed using GraphPad Prism (v10). IC50 values were calculated using a three-parameter non-linear regression model with log(inhibitor) vs. response. For the TxrR activity statistics, the groups were compared using a two-way ANOVA followed by Dunnett’s multiple comparisons with alpha = 0.05. The correlation between IC50 values and TxrR activity was achieved using Pearson correlation with alpha = 0.05.
Background: Tetrazolium assays rely on reduction of a dye to a coloured formazan, in cell work by metabolically active cells.

In the next series the test system is H661. Put plainly: MTT viability assay, H661. Format: cell-based, human. The settings on record: mean ± span, 48 h treatment, cell line without KRAS mutation. The method, then: as §1, §2, §3
The test system of a further series is H1395. Put plainly: MTT viability assay, H1395. The series is classed as cell-based, human. The settings on record: mean ± span, 48 h treatment, cell line without KRAS mutation. The protocol:
as §1, §2, §3

The next series concerns H1993. Put plainly: MTT viability assay, H1993. The series is classed as cell-based, human. To be noted: mean ± span, 48 h treatment, cell line without KRAS mutation. The method, then:
as §1, §2, §3

The subject of another series is A549. As to the kind of experiment: MTT viability assay, A549. The series is classed as cell-based, human. To be noted: mean ± span, 48 h treatment, cell line with KRAS mutation. The protocol:
as §1, §2, §3

In the next series the test system is H460. Put plainly: MTT viability assay, H460. Format: cell-based, human. To be noted: mean ± span, 48 h treatment, cell line with KRAS mutation. The method, then:
as §1, §2, §3

For the next series, the system named is H1792. Put plainly: MTT viability assay, H1792. Format: cell-based, human. The settings on record: mean ± span, 48 h treatment, cell line with KRAS mutation. The protocol:
as §1, §2, §3

A further series concerns HCC-44. Put plainly: MTT viability assay, HCC-44. Format: cell-based, human. The settings on record: mean ± span, 48 h treatment, cell line with KRAS mutation. The method, then:
as §1, §2, §3

The next series relates to H1355. As to the kind of experiment: MTT viability assay, H1355. Format: cell-based, human. The settings on record: mean ± span, 48 h treatment, cell line with KRAS mutation. The protocol: as §1, §2, §3
The subject of series [1] is human NSCLC cell lines without KRAS mutations. Put plainly: MTT assay, average across NSCLC cell lines without KRAS mutations. The series is classed as cell-based. The settings on record: average across cell lines without KRAS mutations (H522, H661, H1395, H1993), 48 h, read-out: IC50 * averaged values. The protocol: as §1, §2, §3
The test system of series [2] is human NSCLC cell lines with KRAS mutations. Put plainly: MTT assay, average across NSCLC cell lines with KRAS mutations. The series is classed as cell-based. The settings on record: 48 h, read-out: IC50 * averaged values. The method, then:
as §1, §2, §3

Series [3] relates to TrxR in H522 cell lysates. As to the kind of experiment: Thioredoxin reductase activity in lysates of treated H522 cells. The series is classed as cell-based, human. To be noted: for Mean Diff. TrxR activity vs. veh: H522 lysate, 24 h treatment at 5 μM. The method, then: (§4) The enzymatic activity of TrxR in the A549 and H522 cell lysates was measured using the TrxR assay Kit (Abcam ab83463) following the manufacturer’s instructions. This kit is based on the TxrR-mediated reduction of the colorless DTNB into TNB2—(yellow). Briefly, cells were plated to reach 70% confluence on a 100-mm dish in one day. They were treated with 5 μM of the gold compounds or the equivalent quantity of DMSO for 24 h. Then, cells were washed in PBS 1X, detached, and lysed in 100 μL of cold TrxR assay buffer supplemented with the Proteinase Inhibitor Cocktail. 20 μg and 40 μg of total proteins were used for the A549 and the H522, respectively. The DTNB substrate was added to samples with or without TrxR inhibitor (provided with the kit) in 96-well plates. The OD412 was measured soon after the substrate addition (A1) and then after 25, 60, 90, and 110 min (An) at 25 °C using a FLUOstar Omega Microplate Reader (BGM Labtech, Chicago, IL, USA). Data analysis was performed following the manufacturer’s instructions. The OD of TNB2, generated by TrxR in every condition, is:ΔA412 nm = (AnAB − AnINH) − (AB − A1INH) where AB is the assay buffer, and INH is the inhibitor. The TrxR activity is:(2) ΔB/Tn−T1×mg of protein lysate×sample dilution factor=(nmol/min)/mg=mU/mg where ΔB is the TNB amount calculated applying ΔA412 nm to TNB standard curve (in nmol), T1 is the time of the first reading (A1AB, and A1INH) (in min), Tn is the time of the second reading (AnAB and AnINH) (in min). The residual TxrR activity (%) was calculated by normalizing the TxrR activity for each compound with the matching vehicle values at every n time point.
as §3

The test system of series [4] is TrxR in A549 cell lysates. As to the kind of experiment: Thioredoxin reductase activity in lysates of treated A549 cells. Format: cell-based, human. To be noted: for Mean Diff. TrxR activity vs. veh: A549 lysate, 24 h treatment at 5 μM. The method, then: as §4, §3
The nature of series [5]: Solution stability by UV-visible spectra over time. Format: physicochemical. The settings on record: 100 µM solution, within an hour. The method, then: Stability studies were led by acquiring UV−visible spectra of 100 µM DMSO or methanol solutions of compounds 1∓8 over time (Figures S19–S29 in Supplementary Materials). […] The stability of NHC-AuX3 complexes (with X = Cl, compounds 1 and 2, with X = Br, compounds 5 and 6) was affected by the nature of both the substituents on the imidazolyl ligand and of the halide, showing a small decrease of the UV bands maxima in an hour. By analyzing the spectral data of compounds 1 and 2, a percent concentration reduction of about 4–5% was estimated within an hour, grading them eligible for biological tests. The partial instability may be attributed to the formation of cationic bis-carbeneAuCl2 species (Equation (1)), with the [bis-carbeneAuX2]^+ and the respective AuX2^−; these ions were actually detected as positive and negative ions in the ESI-MS spectra (see Figures S12 and S13). […] Additionally, the (+)ESI MS spectrum of the acetonitrile solution of compound 6 is particularly rich in positive ions (Figure S16). As concerns the mono-/bis-carbene formation, it is likely initiated by the large trans effect of the carbene ligands, which induces the chemical lability on the trans halide, triggers […], the formation of bis-carbeneAu(III) species, and AuX2^− or AuX4^− anions:2[NHC-AuX3] ⇔ [[(NHC)2AuX2] [AuX2^−] + 2X(1) […]
The stability of the samples 1-8 in DMSO solution was assayed by UV-visible spectroscopy. Spectra were acquired using the Shimadzu UV-2700i spectrophotometer, equipped with the Shimadzu CPS-100 Peltier, at 293 K. Unless diversely specified, 100 µM DMSO solutions of the 1-8 compounds were prepared and spectra were acquired each 10 minutes for a total of 60 minutes. The spectra obtained are reported as following.
Figure S19. UV-Visible Spectra acquired for complex 1.
Figure S20. UV-Visible Spectra acquired for complex 2. […]

Consider `C[n+]1ccn(Cc2ccccc2)[c]1[Au-]([Cl])([Cl])[Cl]` [Compound 2], for which the half-inhibitory concentration (IC50) in the series on H522 came to 53 ± 2.1 µM; with H661, 45 ± 1.7 µM; with H1395, 17 ± 0.8 µM; with H1993 it was 6.1 ± 0.76 µM; in the series on A549, 56 ± 1.6 µM; with H460 it was 65 ± 2.2 µM. The IC50 in the series with H1792 stood at 24 ± 0.98 µM; with HCC-44, 26 ± 1.3 µM; in the series on H1355, 34 ± 1.4 µM; in [1], 30 µM; in series [2], 41 µM. Also, the “TrxR activity reduction / inhibition” value is listed as 20–30% in series [3] (H522, 24 h treatment, stated for both cell lines) and 20–30% in [4] (A549, 24 h treatment, stated for both cell lines). Moreover, the “Mean Diff. TrxR activity vs. veh” value in [3] (reading at 25 min) is given as 3.864%; in [3] (reading at 60 min) it was −19.16%; in series [3] (reading at 90 min), −23.38%; in [3] (reading at 110 min), −31.46%; in [4] (reading at 25 min) it was −5.148%; in [4] (reading at 60 min) it was −11.64%. For the same molecule, the results for the “Mean Diff. TrxR activity vs. veh” value in series [4] (reading at 90 min) and in [4] (reading at 110 min) were −22.67% and −30.44%, respectively. Moreover, the “percent concentration reduction estimated from UV spectra” value in series [5] is on record as 4–5%.

What is called IC50 is the concentration needed to halve the response being measured.
